Test results: US8084602B2, “Porphyrin derivatives and their use in photodynamic therapy” (Destiny Pharma Limited, priority 2002, dated 2011)
Where two headings read alike, the source gives them in different places.

Assays:
[1] = tested on: Staphylococcus aureus (methicillin-resistant strain ATTC BAA-44); experiment: Initial screening: growth inhibition after white light illumination; type: cell-based; details: for inhibition at 3 µM: Staphylococcus aureus; for Growth inhibition (%): S. aureus, 3 μM, 5 min incubation
Method: (§1) The toxic effects of exemplary compounds of the invention against two bacterial strains, the Gram negative bacterium Escherichia coli (strain ATCC 25922) and the Gram positive bacterium Staphylococcus aureus (methicillin-resistant strain ATTC BAA-44), were evaluated by measuring the extent of growth inhibition (bacteriostatic effect) and growth […] (cytocidal effect) in the dark and upon light exposure. Initial compound screening was undertaken using white light [390-740 nm] (150 mW/cm^2) for various timepoints of a concentration of 3 μM (see Table 1). Further experiments were undertaken on those compounds identified from this initial screen using a light source emitting light at a wavelength between 417-420 nm at 15.2 mW/cm^2, 13.68 J/cm^2 (Waldmann Eclairage SA, France) (see Table 20.
(§2) The following protocol was used for the initial screening of the exemplary compounds (Table 1) (see Reddi et al., 2002, Photochem. Photobiol. 75(5):462-470): • (i) E. coli and S. aureus cells were grown overnight on brain heart infusion agar, resuspended in brain heart infusion broth, harvested by centrifugation (3000 g for 15 minutes) and washed once with phosphate buffered saline (PBS) at pH 7.4 consisting 2.7 mM KCl and 0.14 M NaCl. • (ii) The cells were then resuspended in PBS to an optical density at 650 nm of 0.7, which corresponds to a density of 10^8 to 10^9 cells/ml. • (iii) Next, the cells were incubated in PBS in the dark for 5 minutes with 3.0 μM of the compound to be tested. • (iv) After dark incubation, cells were illuminated with white light (wavelength: 390 to 740 nm) (150 mW/cm^2) for up to 30 minutes. During illumination, the cells were kept at 37° C. and magnetically stirred. • (v) Finally, treated and untreated (control) cells were diluted in brain heart infusion broth and maintained at […] while the absorbance of the suspension at 650 nm was monitored at predetermined time points for determining growth curves.
(§3) The percent of growth inhibition in the treated cells was calculated by the following equation: [1−(Ax−A0)/(Ac−A0)]×100 where Ax Ac are the absorbances measured after 3 hours incubation, for the treated and control cell suspensions, respectively, and A0 represents the initial absorbance.

[2] = tested on: Escherichia coli (strain ATCC 25922); experiment: as above; type: cell-based; details: for inhibition at 3 µM: Escherichia coli; for Growth inhibition (%): E. coli, 3 μM, 5 min incubation
Method: as §1, §2, §3

[3] = tested on: S. aureus ATCC BAA-44 (a methicillin resistant S. aureus); experiment: Cell survival (colony forming unit) with or without illumination; type: cell-based, Staphylococcus aureus; details: S. aureus
Method: as §1
For the further investigation of the exemplary compounds (Table 2), the following protocol was adopted: • (i) Bacteria (S. aureus BAA-44 and E. coli 25922) were grown in brain heart infusion (BHI) broth until they reached the stationary phase of growth. • (ii) The cells were harvested by centrifugation (3000 g for 15 min) with a table centrifuge, washed with 10 mM PBS at pH 7.4 containing 2.7 mM KCl and 0.14 M NaCl and suspended in PBS at an optical density of 0.7 at 650 nm corresponding to 10^8-10^9 cells/ml. • (iii) The bacteria, at the desired cell density (˜10^8 cells/ml) were incubated for 5 min in the dark with various concentrations of the exemplary compounds. • (iv) At the end of the incubation period the cells were washed three times with PBS, suspended in PBS, transferred into a 96-well microtitre plate (200 μl/well) and illuminated for 15 min with the Waldmann light source (15.2 mW/cm^2; 13.7 J/cm^2). The cells were illuminated from the bottom of the plate laying it on the glass cover of the lamp. • (v) After illumination, cell survival was determined by plating serially diluted aliquots of treated and untreated (i.e. no exemplary compound or light present) cells onto brain heart agar (BHA) and counting the number of colonies after 18-24 h incubation at 37° C.
the above colony forming unit (CFU) protocol was also used to investigate the photodynamic activity of very low concentrations of the compounds of the invention.

[4] = BAA44, 5 min, read-out: Growth inhibition (%), S. aureus, 5 min incubation, illumination time 5 min
[5] = BAA44, read-out: Growth inhibition (%), S. aureus, 5 min incubation, illumination time 0 min
[6] = BAA44, read-out: Growth inhibition (%), S. aureus, 5 min incubation, illumination time 1 min
[7] = BAA44, read-out: Growth inhibition (%), S. aureus, 5 min incubation, illumination time 10 min
[8] = BAA44, read-out: Growth inhibition (%), S. aureus, 5 min incubation, illumination time 15 min
[9] = BAA44, read-out: Growth inhibition (%), S. aureus, 5 min incubation, illumination time 30 min
[10] = ATCC25922, 5 min, read-out: Growth inhibition (%), E. coli, 5 min incubation, illumination time 5 min
[11] = ATCC25922, read-out: Growth inhibition (%), E. coli, 5 min incubation, illumination time 0 min
[12] = ATCC25922, read-out: Growth inhibition (%), E. coli, 5 min incubation, illumination time 1 min
[13] = ATCC25922, read-out: Growth inhibition (%), E. coli, 5 min incubation, illumination time 10 min
[14] = ATCC25922, read-out: Growth inhibition (%), E. coli, 5 min incubation, illumination time 15 min
[15] = ATCC25922, read-out: Growth inhibition (%), E. coli, 5 min incubation, illumination time 30 min

| Compound | inhibition at 3 µM [1, 4] [%] | inhibition at 3 µM [1, 5] [%] | inhibition at 3 µM [1, 6] [%] | inhibition at 3 µM [1, 7] [%] | inhibition at 3 µM [1, 8] [%] | inhibition at 3 µM [1, 9] [%] | Growth inhibition (%) ([2]; illumination time 0 min) | Growth inhibition (%) ([2]; illumination time 1 min) | Growth inhibition (%) ([2]; illumination time 5 min) | Growth inhibition (%) ([2]; illumination time 10 min) | Growth inhibition (%) ([2]; illumination time 15 min) | Growth inhibition (%) ([2]; illumination time 30 min) | Growth inhibition (%) ([1]; illumination time 0 min) | Growth inhibition (%) ([1]; illumination time 1 min) | Growth inhibition (%) ([1]; illumination time 5 min) | Growth inhibition (%) ([1]; illumination time 10 min) | Growth inhibition (%) ([1]; illumination time 15 min) | Growth inhibition (%) ([1]; illumination time 30 min) | further results |
| --- | --- | --- | --- | --- | --- | --- | --- | --- | --- | --- | --- | --- | --- | --- | --- | --- | --- | --- | --- |
| CCCCCCCCCCCOc1ccc(-c2c3nc(c(-c4ccc(OCCCCCCCCCCC)cc4)c4ccc([nH]4)c(-c4ccc(OCCC[N+](C)(C)C)cc4)c4nc(c(-c5ccc(OCCC[N+](C)(C)C)cc5)c5ccc2[nH]5)C=C4)C=C3)cc1 [Compound 29, 5,10-bis-[4-(3-Trimethylammonio-propyloxy)-phenyl]-15,20-bis-(4-undecyloxy-phenyl)-porphyrin dichloride, reference compound] | 49 | 14 | 43 | 53 | 55 | 55 |  |  |  |  |  |  |  |  |  |  |  |  |  |
| CCCCCCCCCCCOc1ccc(-c2c3nc(c(-c4ccc(OCCC[N+](C)(C)C)cc4)c4ccc([nH]4)c(-c4ccc(OCCC[N+](C)(C)C)cc4)c4nc(c(-c5ccc(OCCC[N+](C)(C)C)cc5)c5ccc2[nH]5)C=C4)C=C3)cc1.[Cl-].[Cl-].[Cl-] [Compound 3, 5,10,15-tris-[4-(3-Trimethylammonio-propyloxy)-phenyl]-20-(4-undecyloxy-phenyl)-porphyrin trichloride, reference compound] | 100 | 21 | 83 | 100 | 100 | 100 |  |  |  |  |  |  |  |  |  |  |  |  | inhibition at 3 µM [2, 10]: 99%; inhibition at 3 µM [2, 11]: 5%; inhibition at 3 µM [2, 12]: 68%; inhibition at 3 µM [2, 13]: 100%; inhibition at 3 µM [2, 14]: 99%; inhibition at 3 µM [2, 15]: 99%; Log reduction ([3]; dark toxicity (no illumination), 1 μM): <1 (<10^−1); Log reduction ([3]; dark toxicity (no illumination), 10 μM): >3 (>10^−3); Log reduction ([3]; photodynamic activity, 1 μM, illumination 15 min): >3 (>10^−3); Log reduction ([3]; photodynamic activity, 10 μM, illumination 15 min): >6 (>10^−6) |
| 5,10,15-tris[3-(3-Trimethyl-ammoniopropyloxy)-phenyl]-20-(3-undecyloxy-phenyl)-porphyrin trichloride [Compound 33, reference compound] |  |  |  |  |  |  | 6 | 10 | 25 | 53 | 67 | 78 | 22 | 57 | 99 | 100 | 100 | 100 |  |
| 5,15-bis-[3-(3-Trimethylammmonio-proploxy)-phenyl]-10-undecyl-porphyrin dichloride [Compound 28] |  |  |  |  |  |  | 4 | 21 | 60 | 73 | 81 | 92 | 15 | 91 | 100 | 100 | 100 | 100 |  |
| 5-{4-[3-Dimethyl-(3-trimethylammonio-propyl)-ammonio-propyloxy]-phenyl}-15-(4-dodecyloxy-phenyl)-porphyrin dichloride [Compound 31] |  |  |  |  |  |  |  |  |  |  |  |  | 9 | 28 | 38 | 78 | 82 | 83 |  |
| 5-[4-(3-Dimethyldecyl-ammoniopropyloxy)-phenyl]-15-{4-[3-dimethyl-(3-dimethylaminopropyl)-ammoniopropyloxy]-phenyl}-porphyrin dichloride [Compound 32] |  |  |  |  |  |  | 3 | 10 | 16 | 22 | 22 | 38 | 23 | 100 | 100 | 100 | 100 | 100 |  |
| 5,10,15-tris-[4-(3-Trimethyl-ammoniopropyloxy)-phenyl]-20-(4-tetradecyloxy-phenyl)-porphyrin trichloride [Compound 36, reference compound] |  |  |  |  |  |  | 6 | 56 | 84 | 90 | 92 | 95 | 22 | 96 | 100 | 100 | 100 | 100 |  |
| CCCCCCCCCCCOc1ccc(-c2c3nc(c(-c4ccc(OCCC[N+](CC)(CC)CC)cc4)c4ccc([nH]4)c(-c4ccc(OCCC[N+](CC)(CC)CC)cc4)c4nc(c(-c5ccc(OCCC[N+](CC)(CC)CC)cc5)c5ccc2[nH]5)C=C4)C=C3)cc1 [Compound 16, 5,10,15-tris-[4-(3-Triethylammonio-propyloxy)-phenyl]-20-(4-undecyloxy-phenyl)-porphyrin trichloride, reference compound] | 100 | 12 | 97 | 100 | 100 | 100 |  |  |  |  |  |  |  |  |  |  |  |  | inhibition at 3 µM [2, 10]: 92%; inhibition at 3 µM [2, 11]: 8%; inhibition at 3 µM [2, 12]: 34%; inhibition at 3 µM [2, 13]: 99%; inhibition at 3 µM [2, 14]: 100%; inhibition at 3 µM [2, 15]: 100% |
